# Laboratory results from paper PMC4205289, “Triptolide inhibits human immunodeficiency virus type 1 replication by promoting proteasomal degradation of Tat protein” (Retrovirology, 2014).
# Entries after “also recorded” stand apart in the source; their conditions may differ. Read-outs that look alike come from different tables or passages of the source.
# Legend:
# [1] = tested on: basal HIV-1 LTR transcription; experiment: Basal LTR transcription activity in TZM-bl and Jurkat cells; type: cell-based; details: tested concentrations (data not shown)
# Description: (§1) The effect of the test compounds on HIV-1 LTR promoter activity was evaluated using the luciferase reporter systems in both TZM-bl and Jurkat cells. TZM-bl cells seeded in 96-well plates (2 × 10^4 cells/well) were treated with either 10 ng/mL TNF-α (Sigma-Aldrich) or co-transfected with pEF1-Tat and pRL-TK (for transfection efficiency normalization) using Lipofectamine 2000 (Invitrogen). The cells were then cultured in the presence of various concentrations of the test compounds. After 24 h (TNF-α stimulation) or 48 h (Tat transfection) of incubation, luciferase activity was determined from cell lysates using the StedyGlo reagent (for TNF-α treated cells) or a dual luciferase assay system (Promega, for transfected cells) as recommended by the manufacturer.
# Jurkat cells were seeded in 24-well plates at a density of 2 × 10^5 cells per well. For TNF-α induction, cells were co-transfected with pLTR-Luc and pRL-TK in the presence or absence of the test compounds. Then, the cells were treated with 10 ng/mL TNF-α 36 h post-transfection. After induction for an additional 12 h, luciferase activity was analyzed. For Tat-induced LTR activation, Jurkat cells were co-transfected with pLTR-Luc (or pLTR-Luc-ΔkB), pEF1-Tat and pRL-TK, and cultured in the presence of various concentrations of test compounds for an additional 48 h before the determination of luciferase activity. […]
# [2] = tested on: TNF-α-induced HIV-1 LTR activation; experiment: HIV-1 LTR-luciferase reporter assay, TNF-α-induced, TZM-bl cells; type: cell-based; details: TNF-α 10 ng/mL, 24 h
# Description: as §1
# HIV-1 LAI = experiment: PBMC antiviral assay, p24 ELISA; type: cell-based; details: for EC50: Human immunodeficiency virus 1, PBMC, 144 h, p24, day 6 post-infection; for selectivity ratio at 6 days: human, read-out: SI (selective index, CC50/EC50)
# Tat protein [3] = tested on: T1, Tat protein; experiment: Western blot of Tat steady-state level in transfected HeLa cells; type: cell-based, HIV-1 NL4-3
# T1 construct: expressed in transfected cells; host or cells: HeLa
# Description: (§2) (A) HeLa cells were transfected with pEF1-FLAG-Tat in the presence of increasing concentrations of triptolide. Cells were harvested 48 h post-transfection, and protein expression levels were determined by Western blotting. (B) HeLa cells were transfected either with pEF1-GFP (left) or pEF1-Tat-GFP (right) in the presence of increasing concentrations of triptolide. Cells were harvested 48 h post-transfection, and protein expression levels were determined by Western blotting.
# (§3) Cells were washed with phosphate buffered saline (PBS) and lysed with radio immunoprecipitation assay lysis buffer supplemented with complete mini protease inhibitor cocktail (Roche) at 4°C for 1 h. Proteins from cell lysates were separated by SDS-PAGE and transferred to polyvinylidene difluoride membranes. After overnight incubation with primary antibodies at 4°C, each blot was probed with horseradish peroxidase-conjugated secondary antibody. Immunoreactive signals were detected with an enhanced chemiluminescence substrate (Thermo Scientific) using an AlphaEaseH FC Imaging System (Alpha Innotech Corporation).
# Tat protein [4] = experiment: as above; type: cell-based, HIV-1 NL4-3
# Description: as §2, §3
# HIV-1 NL4-3 [5] = experiment: microbe, parasite or virus in culture; type: cell-based
# Description: The anti-HIV-1 activities of compounds were evaluated in a variety of assays, including the TZM-bl assay, reporter virus assay, and PBMCs-based antiviral assay. In the TZM-bl assay, TZM-bl cells were plated at a density of 1 × 10^4 cells per well in 96-well tissue culture plates one day before infection. On the day of the experiment, the cell supernatant was removed, and 100 μL of each serially diluted compounds was added were added. HIV-1 NL4-3 in 50 μL of complete medium was then added to each well to achieve a multiplicity of infection (MOI) of 0.5. At 48 h post-infection, the luciferase activity in the cells was analyzed with the SteadyGlo reagent (Promega) according to manufacturer’s instructions. The luminescent signal was measured using the EnVison 2102 Multilabel Reader (Perkin Elmer).
# [6] = tested on: Tat-induced HIV-1 LTR activation; experiment: HIV-1 LTR-luciferase reporter assay, Tat-induced, Jurkat cells; type: cell-based; details: 48 h
# Description: Jurkat cells were seeded in 24-well plates at a density of 2 × 10^5 cells per well. For TNF-α induction, cells were co-transfected with pLTR-Luc and pRL-TK in the presence or absence of the test compounds. Then, the cells were treated with 10 ng/mL TNF-α 36 h post-transfection. After induction for an additional 12 h, luciferase activity was analyzed. For Tat-induced LTR activation, Jurkat cells were co-transfected with pLTR-Luc (or pLTR-Luc-ΔkB), pEF1-Tat and pRL-TK, and cultured in the presence of various concentrations of test compounds for an additional 48 h before the determination of luciferase activity. Luciferase levels were expressed relative to levels in cells without induction.
# TZM-bl cells = experiment: Cytotoxicity, CellTiter-Glo; type: cell-based; details: TZM-bl, all tested concentrations, in parallel with antiviral assay
# Description: (§4) The cytotoxicity of the tested compounds was evaluated in parallel with their antiviral assays using the CellTiter-Glo reagent (Promega) according to the manufacturer’s protocol. The 50% cytotoxic concentrations (CC50s) is the compound concentration that reduced cell viability by 50%.
# [7] = Cytotoxicity, CellTiter-Glo; type: cell-based; details: human; for CC50 at 6 days: PBMCs, mock-infected cell viability
# Description: as §4
# PBMCs = experiment: Cytotoxicity, CellTiter-Glo; type: cell-based
# Description: as §4
# HIV-1 BaL = experiment: PBMC antiviral assay, p24 ELISA; type: cell-based; details: for EC50: Human immunodeficiency virus 1, BAL, PBMC, 144 h, p24, day 6 post-infection; for selectivity ratio at 6 days: human, read-out: SI (selective index, CC50/EC50)
# HIV-1 NL4-3 [8] = experiment: Time-of-addition experiment in TZM-bl cells; type: cell-based; details: triptolide at 5 nM, luciferase at 48 h
# Description: TZM-bl cells seeded in 96-well plates (2 × 10^4 /well) were infected with HIV-1 NL4-3 (MOI = 1). The virus inoculum was removed after 1 h of infection. Test compounds were added at different time points after infection (0 h, 2 h, 4 h, 6 h, 8 h, and 10 h). Dextran sulfate was added at 10 μg/mL, zidovudine at 1 μM and triptolide at 5 nM. At 48 h post-infection, the virus replication level was determined by analyzing luciferase activity in the cells as described above.
smiles,measurement,setting,value
CC(C)[C@]12O[C@H]1[C@@H]1O[C@]13[C@]1(O[C@H]1C[C@H]1C4=C(CC[C@@]13C)C(=O)OC4)[C@@H]2O [triptolide],effect on basal LTR transcription activity,[1],did not affect basal LTR transcription activity
same,effect on TNF-α-induced luciferase production,[2],slightly enhance TNF-α-induced luciferase production; also recorded: not active
same,EC50,HIV-1 LAI; PBMC donor A,1.5 nM
same,EC50,HIV-1 LAI; PBMC donor B,1.2 nM
same,EC50,HIV-1 LAI; PBMC donor C,1.5 nM
same,selectivity ratio at 6 days,HIV-1 LAI; PBMC donor A,8.4
same,selectivity ratio at 6 days,HIV-1 LAI; PBMC donor B,12.8
same,selectivity ratio at 6 days,HIV-1 LAI; PBMC donor C,7.5
same,action on nuclear versus cytoplasmic Tat Δ49–57,"Tat protein [3]; 5 nM triptolide, nuclear/cytoplasmic fractionation, 48 h",only acted on Tat protein accumulated in nucleus
same,effect on Tat mutant with deletion of basic region,"Tat protein [3]; FLAG-Tat Δ49–57, 48 h",partially attenuated
same,steady-state level of Tat protein,"Tat protein [3]; pEF1-FLAG-Tat, 48 h post-transfection, Western blotting",reduced by triptolide in a dose-dependent manner
same,"effect on steady-state level of Tat mutants with deletion of acidic, cysteine or core region","Tat protein [4]; FLAG-tagged deletion mutants, 48 h",completely aborted the activity of triptolide
same,steady level of FLAG-Tat-NES,Tat protein [4]; NES from HIV-1 Rev fused to C-terminus of Tat,remained unchanged
same,FLAG-Tat-SFV expression,Tat protein [4]; basic domain replaced with NLS from SFV capsid,dose-dependently reduced
same,EC50,"HIV-1 NL4-3 [5]; Human immunodeficiency virus 1, NL43, HIV-1 NL4-3, TZM-bl, luciferase, MOI 0.5, 48 h post-infection",0.32 nM
same,reduction of luciferase expression,"HIV-1 NL4-3 [5]; at 5 nM, TZM-bl, HIV-1 NL4-3",97.9%
same,selectivity ratio at 48 h,"HIV-1 NL4-3 [5]; human, HIV-1 NL4-3, TZM-bl, read-out: SI (selective index, CC50/EC50)",79.4
same,effect on Tat-induced gene expression (pLTR-Luc),[6]; co-transfection with pEF1-Tat,inhibitory effect
same,"effect on Tat-mediated LTR activation, LTR with two mutated NF-κB binding sites",[6]; pLTRΔκB-Luc,reduced the Tat-mediated LTR activation
same,toxicity in cell viability assay,TZM-bl cells,no obvious toxicity
same,CC50,"[7]; Jurkat cells, mock-infected Jurkat cell viability",13.9 nM
same,CC50 at 6 days,[7]; PBMC donor A,12.6 nM
same,CC50 at 6 days,[7]; PBMC donor B,15.3 nM
same,CC50 at 6 days,[7]; PBMC donor C,11.2 nM
same,CC50,"[7]; TZM-bl cells, mock-infected TZM-bl cell viability",25.4 nM
same,maximum non-toxic concentration,PBMCs,4 nM
same,EC50,HIV-1 BaL; PBMC donor A,1.4 nM
same,EC50,HIV-1 BaL; PBMC donor B,1.6 nM
same,EC50,HIV-1 BaL; PBMC donor C,1 nM
same,selectivity ratio at 6 days,HIV-1 BaL; PBMC donor A,9
same,selectivity ratio at 6 days,HIV-1 BaL; PBMC donor B,9.6
same,selectivity ratio at 6 days,HIV-1 BaL; PBMC donor C,11.2
same,time post-infection to which addition could be postponed without losing activity,HIV-1 NL4-3 [8],up to 10 h
